According to publication PMC12428554, “Anti-HIV and Antimicrobial Activity of 7-Hydrazino-8-hydroxyquinoline-Based Aromatic Hydrazones” (International Journal of Molecular Sciences, 2025):
“And” between values parts separate entries of the source, which are not always exact repeats. Equal entries are not always repeated. Each block holds one molecule with its values, some of them ahead of it.

Columns and labels:
[1] = system: HIV Rev – HIV RNA complex; design: method as in PMID 25503645, PMID 17967062; details: Figure 1; cited from earlier work
C. albicans ATCC 10231 = assay: MIC by twofold serial dilution, C. albicans; assay type: cell-based; details: Candida albicans, ATCC10231; 24 h, 35 °C; read-out: MIC (Mean ± SE) C. albicans ATCC 10231
Experimental: (§1) Candida albicans ATCC 10231, Pseudomonas aeruginosa ATCC 27853, and Staphylococcus aureus ATCC 29213 strains were obtained from the American Type Culture Collection (ATCC; Rockville, MD, USA). The subculture and inoculum preparation were performed according to CLSI M27-A3 for C. albicans on yeast extract peptone dextrose (YPD) agar (HiMedia, Mumbai, Maharashtra, India) and RPMI-1640 medium (PanEco, Moscow, Russia) with MOPS (3-(N-morpholino) propanesulfonic acid, >99.5%; PanEco, Moscow, Russia), and M7-A11 for P. aeruginosa and S. aureus on Mueller-Hinton agar (MHA; HiMedia, Mumbai, Maharashtra, India) and Mueller-Hinton broth (MHB; HiMedia, Mumbai, Maharashtra, India). The stock cell concentrations of fungus and bacteria were 1 × 10^6 and 1 × 10^8 cells/mL, respectively. A working suspension of C. albicans (5.0 × 10^2 cells/mL) was prepared by two-step dilution of the broth concentration with the RPMI-1640 medium. Assay suspensions of P. aeruginosa and S. aureus (1.0 × 10^6 cells/mL) were prepared by diluting the concentration with Mueller-Hinton broth (HiMedia, Mumbai, Maharashtra, India). Amphotericin B (Sigma-Aldrich, Burlington, MA, USA) and gentamicin (Sigma-Aldrich, Burlington, MA, USA) were used as secondary pharmaceutical standards.
(§2) The minimum inhibitory concentration (MIC) was determined by the twofold serial dilution method, according to CLSI M27-A3 [33] and M07-A11 [34], in three independent experiments with four replicates each. Amphotericin B was used as a positive control for fungus; gentamicin was used as a positive control for bacteria. Stock solutions except gentamicin were prepared in DMSO at a concentration of 6400 μg/mL. Gentanicin was solubilized in sterile water at a concentration of 1280 μg/mL. Stock solutions of the tested substances were diluted to the final concentrations in the assay medium and 100 μL of each sample was added to the wells of 96-well plates, and then 100 μL of inoculum was added. Rows 11 and 12 were left for the negative control (medium with inoculum without the drug) and sterility control. The plates were incubated for 24 h at 35 °C in the case of C. albicans and at 37 °C in the case of P. aeruginosa and S. aureus. The tested concentration for gentamicin ranged from 0.0625 to 32 μg/mL; for other compounds, it ranged from 0.125 to 64 μg/mL. The MIC value was determined using spectrophotometer. The MIC was taken to be the lowest drug concentration that caused complete inhibition of microorganism growth compared to the control. The final MIC values were reported as the means with standard error (SE). Standard errors for µg/mL values less than 0.01 were excluded; standard errors for µM values less than 0.1 were excluded (Table 3).

[2] = system: HIV-1 (subtype B) in MT-4 cells; assay: Antigen p24 assay in HIV-infected MT-4 cells; assay type: cell-based; details: Human immunodeficiency virus 1, MT4; HIV-1 899A strain (subtype B), third day after infection
Experimental: The human MT-4 lymphoblastoid cells were cultured in RPMI 1640 medium supplemented with 10% fetal bovine serum (FBS) (HyClone, Logan, UT, USA), 2 mM L-glutamine, 50 U/mL penicillin, and 50 μg/mL streptomycin in a humidified atmosphere of 5% CO2 at 37 °C. The cells were re-seeded at a density of 3.0 × 10^5 cells/mL every three days. The HIV-1_899A strain (subtype B) was used from the collection of human immunodeficiency virus strains of the D.I. Ivanovsky Institute of Virology, N. F. Gamaleya National Research Center of Epidemiology and Microbiology, Ministry of Health, Moscow, Russia. The commercial drug Efavirenz (EFV), a non-nucleoside inhibitor of HIV reverse transcriptase, was used as a positive control. HIV-1 was added to the cells at 0.1 CCID50 (50% cell culture infectious dose). The cells, both infected and non-infected, were then incubated at 37 °C in a humidified atmosphere containing 5% CO2 for a 40 min period, after which the cells were washed twice in serum-free RPMI 1640 and plated into the wells of a 96-well plate. The tested compounds were then added to the cells at concentrations from 0.5 μM to 100 μM. The final ethanol concentration was 1% v/v. On the third day after infection, the culture fluid was collected for determining the amount of p24 antigen by enzyme immunoassay analysis using a commercial test system kit (Genscreen ULTRA HIV Ag-Ab, Bio-Rad, Hercules, CA, USA). Cell viability was measured by MTT assay.

S. aureus ATCC 29213 = assay: MIC by twofold serial dilution, S. aureus; assay type: cell-based; details: Staphylococcus aureus, ATCC29213, 24 h, 37 °C, read-out: MIC (Mean ± SE) S. aureus ATCC 29213
Experimental: as §1, §2

P. aeruginosa ATCC 27853 = assay: MIC by twofold serial dilution, P. aeruginosa; assay type: cell-based; details: Pseudomonas aeruginosa, ATCC27853; 24 h, 37 °C; read-out: MIC (Mean ± SE) P. aeruginosa ATCC 27853
Experimental: as §1, §2

[3] = target: T1, recombinant HIV-1 Integrase (strand transfer) (Human immunodeficiency virus type 1 group M subtype B, UniProt P04585); design: method as in PMID 12234864; details: positive control, known value; cited from earlier work
T1 construct: The recombinant HIV-1 Integrase (In) was isolated from the Rosetta Escherichia coli producer strain; made in house; host or cells: Escherichia coli Rosetta

Ku70 = system: Ku70; design: method as in PMID 27130816; details: read-out: IC50, Ku70 interaction with DNA; cited from earlier work

Compound: FC(F)(F)Oc1ccc(Nc2ccc3cccc(Cl)c3n2)cc1 [ABX464]
IC50 [1]: 100 to 500 nM

MIC (C. albicans ATCC 10231): 0.4 µg/mL and 0.4 µM
Compound: C[C@@H]1[C@H](O)[C@@H](C)/C=C/C=C/C=C/C=C/C=C/C=C/C=C/[C@H](O[C@@H]2O[C@H](C)[C@@H](O)[C@H](N)[C@@H]2O)C[C@@H]2O[C@](O)(C[C@@H](O)C[C@@H](O)[C@H](O)CC[C@@H](O)C[C@@H](O)CC(=O)O[C@H]1C)C[C@H](O)[C@H]2C(=O)O [Amphotericin B, reference compound]

Compound: O=C1Nc2ccc(Cl)cc2[C@@](C#CC2CC2)(C(F)(F)F)O1 [EFV, Efavirenz, reference compound]
IC50 [2]: < 50 nM

MIC (S. aureus ATCC 29213): 0.6 µg/mL and 1.3 µM
MIC (P. aeruginosa ATCC 27853): 2 µg/mL and 4.2 µM
Compound: CNC(C)C1CCC(N)C(OC2C(N)CC(N)C(OC3OCC(C)(O)C(NC)C3O)C2O)O1 (stereo not shown) [Gentamicin, reference compound]

Compound: O=C(O)C(=O)CC(=O)c1cc(OCc2ccccc2)cc(OCc2ccccc2)c1 [L-708,906]
IC50 [3]: 500 ± 100 nM

Compound: COc1ccc(CCNc2ncc3c(=O)n(-c4cccc(F)c4)c(=O)[nH]c3n2)cc1OC [STL127705]
IC50 (Ku70): 3500 nM
